The values below come from patent EP4122499A1, “FIBROBLAST ACTIVATION PROTEIN INHIBITORS AND USE THEREOF” (3B Pharmaceuticals GmbH, priority 2021, dated 2023).

The first experiment deals with T1, Recombinant mouse FAP (Mus musculus, UniProt P97321).
T1 construct: purchased R&D systems 8647-SE
T1 sequence (P97321 1-761): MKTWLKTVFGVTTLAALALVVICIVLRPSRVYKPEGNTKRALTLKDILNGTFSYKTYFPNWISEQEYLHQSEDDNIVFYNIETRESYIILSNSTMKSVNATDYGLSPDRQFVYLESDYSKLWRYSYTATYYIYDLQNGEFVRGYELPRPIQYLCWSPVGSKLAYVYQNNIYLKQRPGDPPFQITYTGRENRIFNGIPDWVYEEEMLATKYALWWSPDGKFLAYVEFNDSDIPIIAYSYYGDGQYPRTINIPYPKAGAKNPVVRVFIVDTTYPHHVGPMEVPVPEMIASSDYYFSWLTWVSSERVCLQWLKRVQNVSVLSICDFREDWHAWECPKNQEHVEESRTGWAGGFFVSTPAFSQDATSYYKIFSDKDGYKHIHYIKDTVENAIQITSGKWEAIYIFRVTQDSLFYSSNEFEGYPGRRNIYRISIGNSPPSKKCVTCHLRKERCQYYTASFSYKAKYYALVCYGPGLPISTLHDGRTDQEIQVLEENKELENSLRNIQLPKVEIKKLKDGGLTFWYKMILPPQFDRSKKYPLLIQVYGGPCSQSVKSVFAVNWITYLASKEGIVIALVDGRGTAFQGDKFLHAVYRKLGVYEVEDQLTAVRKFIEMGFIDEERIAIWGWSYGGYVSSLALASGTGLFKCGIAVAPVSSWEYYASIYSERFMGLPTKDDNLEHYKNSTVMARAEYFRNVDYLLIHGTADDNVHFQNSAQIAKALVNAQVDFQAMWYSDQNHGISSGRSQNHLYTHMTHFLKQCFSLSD
Briefly: FRET-based FAP protease activity assay (mouse). It counts as biochemical. The conditions noted are these: FRET-peptide substrate, 37°C. As to the method: In order to determine the inhibitory activity a FRET-based FAP protease activity assay was established.
25 µL of a 30 µM substrate solution, diluted in assay buffer, was added. […] Four parameter logistic (4PL) curve fitting and pIC50 calculations were performed using ActivityBase software.
`O=C(O)CN1CCN(CC(=O)O)CCN(CC(=O)N2CCN(CCCOc3ccc4nccc(C(=O)NCC(=O)N5CC(F)(F)C[C@H]5C(=O)c5nc6ccccc6o5)c4c3)CC2)CCN(CC(=O)O)CC1`: the “pIC50 (mouseFAP)” value was determined as 8.3.

On to `N#C[C@@H]1CC(F)(F)CN1C(=O)CNC(=O)c1ccnc2ccc(-c3ccc(S(=O)(=O)CCCNC(=O)CN4CCN(CC(=O)O)CCN(CC(=O)O)CCN(CC(=O)O)CC4)cc3)cc12`, for which the “pIC50 (mouseFAP)” value came out at 9. Consider `O=C(O)CN1CCN(CC(=O)O)CCN(CC(=O)NCCCNC(=O)c2ccc(-c3ccc4nccc(C(=O)NCC(=O)N5CCC[C@H]5C(=O)c5nc6ccccc6o5)c4c3)cc2)CCN(CC(=O)O)CC1`, for which the “pIC50 (mouseFAP)” value amounted to 8.7. Still for that read-out and setting: with `N#C[C@@H]1CC(F)(F)CN1C(=O)CNC(=O)c1cc[n+]([O-])c2ccc(OCCCN3CCN(C(=O)CN4CCN(CC(=O)O)CCN(CC(=O)O)CCN(CC(=O)O)CC4)CC3)cc12` the figure was 8.8.

Regarding `N#C[C@@H]1CC(F)(F)CN1C(=O)CNC(=O)c1ccnc2ccc(-c3ccc(C(=O)NCCCNC(=O)CN4CCN(CC(=O)O)CCN(CC(=O)O)CCN(CC(=O)O)CC4)cc3)cc12`, the “pIC50 (mouseFAP)” value is 9.2. On the same count and under the same terms, the result for `N#C[C@@H]1CC(F)(F)CN1C(=O)CNC(=O)c1ccnc2ccc(-c3ccc(C(=O)NCCN4CCN(C(=O)CN5CCN(CC(=O)O)CCN(CC(=O)O)CCN(CC(=O)O)CC5)CC4)cc3)cc12` reads 8.9; that for `N#C[C@@H]1CC(F)(F)CN1C(=O)CNC(=O)c1ccnc2ccc(-c3ccc(C(=O)NCCCNC(=O)CN4CCN(CC(=O)O)CCN(CC(=O)O)CCN(CC(=O)O)CC4)nc3)cc12`, 8.8; that for `N#C[C@@H]1CCCN1C(=O)CNC(=O)c1ccnc2ccc(-c3ccc(C(=O)NCCCNC(=O)CN4CCN(CC(=O)O)CCN(CC(=O)O)CCN(CC(=O)O)CC4)cc3)cc12`, 9.

For the molecule `O=C(O)CN1CCN(CC(=O)O)CCN(CC(=O)NCCCNC(=O)c2ccc(-c3ccc4nccc(C(=O)NCC(=O)N5CCC[C@H]5B(O)O)c4c3)cc2)CCN(CC(=O)O)CC1`, the “pIC50 (mouseFAP)” value is given as 8.5.

In the case of `O=C(O)CN1CCN(CC(=O)O)CCN(CC(=O)N2CCN(CCNC(=O)c3cccc(-c4ccc5c(C(=O)NCC(=O)N6CCC[C@H]6C(=O)c6nc7ccccc7o6)ccnc5c4)c3)CC2)CCN(CC(=O)O)CC1` [drawing 352], the “pIC50 (mouseFAP)” value is 8.9. Still for that read-out and setting: the result for `O=C(O)CN1CCN(CC(=O)O)CCN(CC(=O)N2CCN(CCNC(=O)c3cccc(-c4ccc5nccc(C(=O)NCC(=O)N6CCC[C@H]6C(=O)c6nc7ccccc7o6)c5c4)c3)CC2)CCN(CC(=O)O)CC1` [drawing 353] reads 8.6. The same measure, in the same setting: with `O=C(O)CN1CCN(CC(=O)O)CCN(CC(=O)N2CCN(CCNC(=O)c3ccc(-c4ccc5nccc(C(=O)NCC(=O)N6CCC[C@H]6C(=O)c6nc7ccccc7o6)c5c4)cc3)CC2)CCN(CC(=O)O)CC1` [drawing 354] the figure was 8.1; with `O=C(O)CN1CCN(CC(=O)O)CCN(CC(=O)N2CCN(CCNC(=O)c3ccc(-c4ccc5c(C(=O)NCC(=O)N6CCC[C@H]6C(=O)c6nc7ccccc7o6)ccnc5c4)cc3)CC2)CCN(CC(=O)O)CC1` [drawing 355], 8.8; with `O=C(O)CN1CCN(CC(=O)O)CCN(CC(=O)N2CCN(CCCOc3ccc4nccc(C(=O)NCC(=O)N5CCC[C@H]5C(=O)c5nc6ccccc6o5)c4c3)CC2)CCN(CC(=O)O)CC1` [drawing 357], 8.5. On the same count and under the same terms, with `O=C(O)CN1CCN(CC(=O)O)CCN(CC(=O)N2CCN(CCCOc3ccc4nccc(C(=O)NCC(=O)N5C[C@@H](F)C[C@H]5C(=O)c5nc6ccccc6o5)c4c3)CC2)CCN(CC(=O)O)CC1` [drawing 358] the figure was 8.5; with `O=C(O)CN1CCN(CC(=O)O)CCN(CC(=O)N2CCN(CCNC(=O)c3ccc(-c4ccc5nccc(C(=O)NCC(=O)N6C[C@@H](F)C[C@H]6C(=O)c6nc7ccccc7o6)c5c4)cc3)CC2)CCN(CC(=O)O)CC1` [drawing 360], 7.9; with `O=C(O)CN1CCN(CC(=O)O)CCN(CC(=O)N2CCN(CCNC(=O)c3ccc(-c4ccc5nccc(C(=O)NCC(=O)N6CCC[C@H]6C(=O)c6nc7ccccc7o6)c5c4)cn3)CC2)CCN(CC(=O)O)CC1` [drawing 361], 7.8.

Staying with this experiment, now noted: FRET-peptide substrate, 37°C, read-out: pIC50 (mouseFAP) (converted).
As to `O=C(NCC(=O)N1CCC[C@H]1C(=O)c1nc2ccccc2o1)c1ccnc2ccccc12`, the IC50 is 2 nM.

Consider `CS(=O)(=O)c1ccc(-c2ccc3nccc(C(=O)NCC(=O)N4CC(F)(F)C[C@H]4C#N)c3c2)cc1`, for which the IC50 is 0.794 nM. Consider `CC(C)(C)c1nnc(C(=O)[C@@H]2CCCN2C(=O)CNC(=O)c2ccnc3ccccc23)o1`, for which the IC50 was 3.98 nM. Take `CS(=O)(=O)c1cccc(-c2ccc3nccc(C(=O)NCC(=O)N4CC(F)(F)C[C@H]4C#N)c3c2)c1` [drawing 288]: the IC50 is 1 nM. Still for that read-out and setting: the result for `CS(=O)(=O)c1cccc(-c2ccc3c(C(=O)NCC(=O)N4CC(F)(F)C[C@H]4C#N)ccnc3c2)c1` [drawing 289] reads 1.26 nM.
